Reference: patent US12239655B2, “Combined modalities for nucleosides and/or NADPH oxidase (NOX) inhibitors as myeloid-specific antiviral agents” (Emory University, priority 2017, dated 2025)

Legend:
[1] = Cellular toxicity assay in macrophages; type: cell-based, human; conditions: human
[2] = Cellular toxicity assay in PBM cells; type: cell-based; conditions: human
Experimental: (§1) The toxicity of the compounds was assessed in Vero, human PBM, CEM (human lymphoblastoid), MT-2, and HepG2 cells, as described previously (see Schinazi R. F., Sommadossi J.-P., Saalmann V., Cannon D. L., Xie M.-Y., Hart G. C., Smith G. A. & Hahn E. F. Antimicrob. Agents Chemother. 1990, 34, 1061-67). Cycloheximide was included as positive cytotoxic control, and untreated cells exposed to solvent were included as negative controls. The cytotoxicity IC50 was obtained from the concentration-response curve using the median effective method described previously (see Chou T.-C. & Talalay P. Adv. Enzyme Regul. 1984, 22, 27-55; Belen'kii M. S. & Schinazi R. F. Antiviral Res. 1994, 25, 1-11).

[3] = Cellular toxicity assay in CEM cells; type: cell-based; conditions: human
Experimental: as §1

[4] = Cellular toxicity assay in Vero cells; type: cell-based; conditions: African green monkey
Experimental: as §1

[5] = Cellular toxicity assay in Huh7 cells; type: cell-based; conditions: human
[6] = test system: HIV; experiment: HIV assay in macrophages; type: cell-based; conditions: for EC90 / EC50: Human immunodeficiency virus 1, Macrophage, Table 5 (Example 8); for Antiviral Potency Macrophages - EC50/90: EC50 / Antiviral Potency Macrophages - EC50/90: EC90: Table 5A
Experimental: (§2) PBM cells or macrophages were incubated with various concentrations of antiviral agents for 6 days PBM cells) or […] (macrophages), followed by harvest of supernatants and quantification of extracellular HIV using the RT assay or p24 assays as previously described (Gavegnano and Schinazi et al, 2012, AAC). AZT (positive control), no drug controls, or virus alone were also performed in each assay. Assays were performed in 8 independent experiments. The Chou and Tallalay method was used to calculate the effective inhibitory concentration 50/90 as previously described (Gavegnano and Schinazi et al, 2012, AAC).

[7] = test system: HIV; experiment: HIV assay in PBM cells; type: cell-based
Experimental: as §2

[8] = Bone marrow cytotoxicity, GM lineage (CFU-GM); type: cell-based, human; conditions: human, Table 8A, first value of the cell, read-out: Cytotoxicity: MTT IC50, Bone Marrow (GM Lineage)
Experimental: (§3) Primary human bone marrow mononuclear cells can be obtained commercially from Cambrex Bioscience (Walkersville, MD). CFU-GM assays is carried out using a bilayer soft agar in the presence of 50 units/mL human recombinant granulocyte/macrophage colony-stimulating factor, while BFU-E assays used a […] matrix containing 1 unit/mL erythropoietin (see Sommadossi J P, Carlisle R. Toxicity of 3′-azido-3′-deoxythymidine and 9-(1,3-dihydroxy-2-propoxymethyl) guanine for normal human hepatopoietic progenitor cells in vitro. Antimicrob. Agents Chemother. 1987; 31: 452-454; Sommadossi, JP, Schinazi, RF, Chu, C K, and Xie, M Y. Comparison of cytotoxicity of the (−) and (+) enantiomer of 2′,3′-dideoxy-3′-thiacytidine in normal human bone marrow progenitor cells. Biochem. Pharmacol. 1992; 44:1921-1925). Each experiment can be performed in duplicate in cells from three different donors. AZT is used as a positive control. […] The 50% inhibitory concentration (IC50) can be obtained by least-squares linear regression analysis of the logarithm of drug concentration versus BFU-E survival fractions. Statistical analysis can be performed with Student's t test for independent non-paired samples.

[9] = Bone marrow cytotoxicity, erythroid lineage (BFU-E); type: cell-based, human; conditions: human; Table 8A; first value of the cell; read-out: Cytotoxicity: MTT IC50, Bone Marrow (Erythroid Lineage)
Experimental: as §3

[10] = test system: Macrophages; experiment: Cellular toxicity assay in macrophages; type: cell-based, human; conditions: Table 8A; slash not defined, head says IC50
[11] = test system: Bone Marrow (GM Lineage); experiment: Bone marrow cytotoxicity, GM lineage (CFU-GM); type: cell-based, human; conditions: Table 8A; slash not defined, head says IC50
Experimental: as §3

[12] = test system: Bone Marrow (Erythroid Lineage); experiment: Bone marrow cytotoxicity, erythroid lineage (BFU-E); type: cell-based, human; conditions: Table 8A; slash not defined, head says IC50
Experimental: as §3

[13] = Table 8A, first value of the cell, read-out: Cytotoxicity: MTT IC50, Macrophages
[14] = Table 8A, MTT, read-out: Cytotoxicity: MTT IC50, PBM
[15] = Table 8A, MTT, read-out: Cytotoxicity: MTT IC50, CEM
[16] = Table 8A, MTT, read-out: Cytotoxicity: MTT IC50, Vero
[17] = Table 8A, MTT, read-out: Cytotoxicity: MTT IC50, Huh7
[18] = Human immunodeficiency virus 1, PBMC, 144 h, Table 5 (Example 8), HIV in PBM cells, 6 days, read-out: PBM Cells EC50
[19] = macrophages, Table 8, read-out: Cytotoxicity IC50, Macrophages
[20] = PBM cells, Table 8, read-out: Cytotoxicity IC50, PBM
[21] = CEM lymphoblastoid cells, Table 8, read-out: Cytotoxicity IC50, CEM
[22] = Vero cells, Table 8, read-out: Cytotoxicity IC50, Vero
[23] = macrophages, Table 8A, first value of the cell, read-out: Cytotoxicity: MTT IC50, Macrophages
[24] = PBM cells, Table 8A, MTT, read-out: Cytotoxicity: MTT IC50, PBM
[25] = CEM lymphoblastoid cells, Table 8A, MTT, read-out: Cytotoxicity: MTT IC50, CEM
[26] = Vero cells, Table 8A, MTT, read-out: Cytotoxicity: MTT IC50, Vero
[27] = Huh7 cells, Table 8A, MTT, read-out: Cytotoxicity: MTT IC50, Huh7
[28] = primary bone marrow mononuclear cells, GM lineage (CFU-GM)
[29] = Human immunodeficiency virus 1, PBMC, Table 5A, HIV in PBM cells, read-out: Antiviral Potency PBM Cells - EC50/90: EC50
[30] = Table 5A, HIV in PBM cells, read-out: Antiviral Potency PBM Cells - EC50/90: EC50

With C[C@@H]1C[C@@H]([C@H](O)CC2CC(=O)NC(=O)C2)C(=O)[C@@H](C)C1 the IC50 [1, 13] was 6.9 ± 0.9 µM, the IC50 [2, 14] was 2.5 µM and the IC50 [3, 15] was 0.06 µM. The IC50 [4, 16] was 0.7 µM and the IC50 [5, 17] was 0.9 µM.

C#C[C@]1(CO)O[C@@H](n2cnc3c(N)nc(F)nc32)CC1O (some centres unmarked) showed an EC90 [6] of 0.01 nM.

For C#C[C@]1(CO)O[C@@H](n2cnc3c(N)nc(F)nc32)C(O)C1O (some centres unmarked), the EC90 ([7]; Human immunodeficiency virus 1, PBMC, 144 h, Table 5 (Example 8), HIV in PBM cells, 6 days) was 19.1 µM, the EC50 [7, 18] was 3.2 µM and the EC50 [6] was 0.001 µM. It also gave an EC90 [6] of 20 nM.

C#C[C@]1(CO)O[C@@H](n2cnc3c(N)nc(F)nc32)C[C@@H]1O [drawing 60] showed an IC50 [1, 19] of 2.4 µM, an IC50 [2, 20] of 1.1 µM and an IC50 [3, 21] of 6.8 µM. The IC50 [4, 22] was at least 100 µM.

Compound C#C[C@]1(CO)O[C@@H](n2cnc3c(N)nc(F)nc32)[C@H](O)[C@@H]1O [drawing 61] has an IC50 [1, 19] of 0.7 µM, an IC50 [2, 20] of 3.2 µM and an IC50 [3, 21] of 52 µM. For the same compound, the IC50 [4, 22] was over 100 µM.

CN(C)c1cccc(-c2c3c(=O)n(-c4ccccc4Cl)[nH]c3cc(=O)n2C)c1 [drawing 62] gave an IC50 [1, 19] of over 10 µM and an IC50 [2, 20] of over 100 µM.

Work on CC(=O)c1ccc2c(c1)Nc1ccccc1S2 [drawing 63] yielded an IC50 [1, 19] of over 10 µM and an IC50 [2, 20] of over 100 µM.

With COc1ccc(NC(=O)Nc2ccc(N)cc2)cc1 [drawing 64] the IC50 [1, 19] was over 10 µM and the IC50 [2, 20] was over 100 µM.

For C#C[C@]1(CO)O[C@@H](n2ccc(=O)[nH]c2=O)[C@H](O)[C@@H]1O [drawing 65], the IC50 [1, 23] was over 100 µM, the IC50 [2, 24] was over 100 µM and the IC50 [3, 25] was over 100 µM. It also gave an IC50 [4, 26] of over 100 µM, an IC50 [5, 27] of over 100 µM and an IC50 [8, 28] of over 100 µM. For the same compound, the IC50 [9] was over 100 µM.

C#C[C@]1(COP(=O)(N[C@@H](C)C(=O)OC(C)C)Oc2ccccc2)O[C@@H](n2ccc(=O)[nH]c2=O)[C@H](O)[C@@H]1O (some centres unmarked) [drawing 66] showed an IC50 [1, 13] of over 100 µM, an IC50 [2, 14] of over 100 µM and an IC50 [3, 15] of over 100 µM. It also gave an IC50 [4, 16] of over 100 µM, an IC50 [5, 17] of over 100 µM and an IC50 [8] of over 100 µM. For the same compound, the IC50 [9] was over 100 µM.

With C#C[C@]1(CO)O[C@@H](n2cnc3c(N)nc(F)nc32)C[C@@H]1O [drawing 67] the IC50 [1, 23] was 21 µM, the “Macrophages, second value after the slash” value [10] was 9.2 µM and the IC50 [2, 24] was 2.9 µM. It also gave an IC50 [3, 25] of 1.7 µM, an IC50 [4, 26] of 3.2 µM and an IC50 [8, 28] of 1.9 µM. For the same compound, the “Bone Marrow (GM Lineage), second value after the slash” value [11] was 22.4 µM, the IC50 [9] was 2.4 µM and the “Bone Marrow (Erythroid Lineage), second value after the slash” value [12] was 8.6 µM.

C#C[C@]1(CO)O[C@@H](n2cnc3c(N)nc(F)nc32)[C@H](O)[C@@H]1O [drawing 68] gave an IC50 [1, 23] of 3.2 ± 0.3 µM, an IC50 [2, 24] of 2.2 µM and an IC50 [3, 25] of 1.9 µM. It also gave an IC50 [4, 26] of 12.9 µM, an IC50 [5, 27] of 11.4 µM and an IC50 [8, 28] of 0.4 µM. The “Bone Marrow (GM Lineage), second value after the slash” value [11] was 12.7 µM, the IC50 [9] was 0.7 µM and the “Bone Marrow (Erythroid Lineage), second value after the slash” value [12] was 5.4 µM.

In the case of O=c1c2cc(F)ccc2sn1-c1ccc2c(c1)OCO2 [drawing 70], the IC50 ([2]; PBM cells, Table 8B, MTS (head line), read-out: Cytotoxicity: IC50, PBM) is reported as 58.3 ± 10.9 µM, the IC50 ([3]; CEM lymphoblastoid cells, Table 8B, MTT (head line), read-out: Cytotoxicity: IC50, CEM) is reported as 3.7 µM and the IC50 ([4]; Vero cells, Table 8B, MTT (head line), read-out: Cytotoxicity: IC50, Vero) is reported as 20.1 µM. For the same compound, the IC50 ([5]; Huh7 cells, Table 8B, MTT/MTS (head line), read-out: Cytotoxicity: IC50, Huh7) was 379 ± 19.2 µM.

For CN(C)c1cccc(-c2c3c(=O)n(-c4ccccc4Cl)[nH]c3cc(=O)n2C)c1 [drawing 73], the EC50 [7, 18] was over 100 µM, the EC50 [6] was 0.03 µM and the EC90 [6] was 300 nM.

With CC(=O)c1ccc2c(c1)Nc1ccccc1S2 [drawing 74] the EC50 [7, 18] was over 100 µM, the EC50 [6] was 0.02 µM and the EC90 [6] was 200 nM.

For COc1ccc(NC(=O)Nc2ccc(N)cc2)cc1 [drawing 75], the EC50 [7, 18] was over 100 µM, the EC50 [6] was 0.001 µM and the EC90 [6] was 100 nM.

With C#C[C@]1(CO)O[C@@H](n2ccc(=O)[nH]c2=O)[C@H](O)[C@@H]1O [drawing 76] the EC50 [7, 29] was over 10 µM, the “Antiviral Potency Macrophages - EC50/90: EC50” value [6] was 16600 ± 3200 nM and the “Antiviral Potency Macrophages - EC50/90: EC90” value [6] was over 100000 nM.

For C#C[C@]1(COP(=O)(N[C@@H](C)C(=O)OC(C)C)Oc2ccccc2)O[C@@H](n2ccc(=O)[nH]c2=O)[C@H](O)[C@@H]1O (some centres unmarked) [drawing 77], the EC50 ([7]; Human immunodeficiency virus 1, PBMC, read-out: Antiviral Potency PBM Cells - EC50/90: EC50) was over 10 µM, the “Antiviral Potency Macrophages - EC50/90: EC50” value [6] was 0.1 ± 6 nM and the “Antiviral Potency Macrophages - EC50/90: EC90” value [6] was 9 ± 7 nM.

In the case of C#C[C@]1(CO)O[C@@H](n2cnc3c(N)nc(F)nc32)C[C@@H]1O [drawing 78], the “Antiviral Potency PBM Cells - EC50/90: EC90” value ([7]; Table 5A, HIV in PBM cells) is reported as 0.0000001 µM, the EC50 [7, 30] is reported as 0.000000001 µM and the “Antiviral Potency Macrophages - EC50/90: EC50” value [6] is reported as 3e-05 nM. The “Antiviral Potency Macrophages - EC50/90: EC90” value [6] was 7e-06 nM.

For C#C[C@]1(CO)O[C@@H](n2cnc3c(N)nc(F)nc32)[C@H](O)[C@@H]1O [drawing 79], the EC50 [7, 29] was 1.8 µM, the “Antiviral Potency Macrophages - EC50/90: EC50” value [6] was 1 ± 2 nM and the “Antiviral Potency Macrophages - EC50/90: EC90” value [6] was 20 ± 10 nM.

With O=c1c2cc(F)ccc2sn1-c1ccc2c(c1)OCO2 [drawing 81] the “Antiviral Potency PBM Cells - EC50/90: EC90” value ([7]; Table 5A, HIV in PBM cells) was 12.9 µM, the EC50 [7, 30] was 0.7 µM and the “Antiviral Potency Macrophages - EC50/90: EC50” value [6] was 9 nM. For the same compound, the “Antiviral Potency Macrophages - EC50/90: EC90” value [6] was 300 nM.
